Source: patent US10745390B2, “Small molecule activators of mitochondrial function” (THE TRUSTEES OF THE UNIVERSITY OF PENNSYLVANIA, priority 2008, dated 2020)

tested on: yeast lacking Yfh1p; assay: Yeast-based screening assay (WST-1 tetrazolium dye reduction); assay type: cell-based; settings: glycerol medium, 72 h, OD450, single dose 50 uM, activity threshold >1.32 fold increase in absorbance
Description: The aim of this assay is to identify compounds that can improve mitochondrial function in yeast lacking Yfh1p grown in a non-fermentable growth medium. The yeast Yfh1p expression construct used in this study has a galactose-inducible, glucose-repressible promoter driving Yfh1p production. Yfh1p is expressed when yeast are grown in the presence of galactose and inhibited when they are grown in the presence of dextrose. Growing the cells in the presence of dextrose not only turns off the expression of Yfh1p, but also leads to the depletion of Yfh1p in the cells. Transferring the Yfh1p-depleted cells into a non-fermentable, glycerol-based medium dictates that the yeast must use an oxidative pathway. […] Cleavage of the tetrazolium salt to formazan is accompanied by an increase in absorbance at 450 nm.
Compounds in the single dose assay were evaluated on the basis of Fold Induction compared to yeast only, and those in the dose response assay on percent activation, i.e. percent induction of tetrazolium dye reduction in yeast grown in a non-fermentable growth medium. Percent activation was calculated using the optical density in control wells with cells treated with positive control compound (25 uM methyl 4-(1, 2, 4, 5-tetraazin-3-yl) phenyl ether (MLSMR External ID: MLS000550612; PubChem SID: 14718875)) as full induction of tetrazolium dye reduction (100% activation), and wells with cells grown in medium without methyl 4-(1, 2, 4, 5-tetraazin-3-yl) phenyl ether as an indicator of 0% activation. Library compounds were screened at 50 uM. From the 50 uM single dose assay, 1250 compounds with significant tetrazolium dye reduction were selected for confirmatory dose response assay. These compounds were screened in a 10-point dilution series ranging from 0.01 to 100 uM.
The following screening protocol was followed. Yeast cells containing an inducible/repressible promoter for Yfh1p expression were cultured in induction medium (Yfh1 on) with Galactose as the carbon source, and then shifted to repression medium (Yfh1 off) with Dextrose as the carbon source (for 24 hours) to allow Yfh1 protein to decay. The cells were then incubated for 24 h in respiration-only medium (Yfh1 off) with Glycerol as the carbon source to allow cells to equilibrate, and then plated in 384 well plates in respiration-only medium (Yfh1 off) with glycerol as carbon source, in the presence of Tetrazolium dye (WST-1) for 72 hours.
Preparation of Assay • 1. Cells were streaked out on a YPGal agar plate and grown inverted for 3 days at 30 C. • 2. A colony was selected and 10 mL of YPGal medium inoculated and grown over night at 30 C with shaking. • 3. The cells were counted on a coulter counter, centrifuged at 1400 g for 5 min in dextrose (CSMM-D) medium, washed twice to remove all galactose, and resuspended in CSMM-D medium at a cell density of 2 to the power of 5 cells/mL. • 4. Frozen stocks were prepared at this point, in dextrose medium. For these dextrose stock solutions, enough culture was grown in dextrose media over night with shaking at 30 C, to get a cell density of ˜2 to the power of 7 cells/mL. The cells were centrifuged at 1400 g for 5 min and the pellet resuspended in glycerol freezing medium at a cell density of 2 to the power of 8 cells/mL. • 5. The day before the screen, frozen culture was thawed at room temperature and resuspended in glycerol (CSMM-G) medium. • 6. The culture was grown over night at 30 C with shaking and the cells counted and diluted in CSMM-G medium for a final cell density of 4 to the power of 6 cells/mL. • 7. Methyl 4-(1, 2, 4, 5-tetraazin-3-yl) phenyl ether (positive control), CSMM-G medium alone (negative control) and compounds were plated with DMSO at 200× concentration (final concentrations: methyl 4-(1, 2, 4, 5-tetraazin-3-yl) phenyl ether 25 uM, compounds 50 uM, DMSO 0.5%) in 384-well plates: 125 nL/well. For the dose response assay, compounds were plated in a 10-point dilution series ranging from 0.01 to 100 uM, at 1% DMSO. • 8. […]

SMILES	active in the screen (tetrazolium dye reduction)
CCCC(=O)NC(c1ccco1)c1cc([N+](=O)[O-])c2cccnc2c1O (centres unmarked) [N-[2-furyl(8-hydroxy-5-nitro-7-quinolinyl)methyl]butanamide]	active
CCC(=O)NC(c1ccc(OC)c(OC)c1)c1cc(Cl)c2cccnc2c1O (centres unmarked) [N-[(5-chloro-8-hydroxyquinolin-7-yl)-(3,4-dimethoxyphenyl)methyl]propanamide]	active
CCC(=O)NC(c1ccc(OC)cc1)c1cc(Cl)c2cccnc2c1O (centres unmarked) [N-[(5-chloro-8-hydroxyquinolin-7-yl)-(4-methoxyphenyl)methyl]propanamide]	active
CCC(=O)NC(c1ccc(C)cc1)c1cc([N+](=O)[O-])c2cccnc2c1O (centres unmarked) [N-[(8-Hydroxy-5-nitro-quinolin-7-yl)-p-tolyl-methyl]-propionamide]	active
CC(=O)NC(c1cccs1)c1cc([N+](=O)[O-])c2cccnc2c1O (centres unmarked) [N-[(8-hydroxy-5-nitro-quinolin-7-yl)-thiophen-2-yl-methyl]-acetamide]	active
CCC(=O)NC(c1cccs1)c1cc([N+](=O)[O-])c2cccnc2c1O (centres unmarked) [N-[(8-hydroxy-5-nitro-quinolin-7-yl)-thiophen-2-yl-methyl]-propionamide]	active
CCCC(=O)NC(c1cccs1)c1cc([N+](=O)[O-])c2cccnc2c1O (centres unmarked) [N-[(8-hydroxy-5-nitroquinolin-7-yl)-thiophen-2-ylmethyl]butanamide]	active
CCCCC(=O)NC(c1ccccc1OC)c1ccc2cccnc2c1O (centres unmarked) [N-[(8-hydroxyquinolin-7-yl)-(2-methoxyphenyl)methyl]pentanamide]	active

tested on: I154F FA cells; assay: I154F frataxin point-mutation model, rescue from FAC and/or BSO; assay type: cell-based, murine; settings: not given
From the text: 2. Preliminary testing in the I154F frataxin point-mutation model determines whether test compounds can rescue I154F FA cells from lethal concentrations of FAC and/or BSO. Among the mammalian-cell models that have, or recapitulate, the genetic defects underlying FA, by far the most robust (and best validated) is the I154F murine frataxin point-mutation model developed by Puccio and colleagues (Calmels, N. et al.), the first cellular model based on frataxin missense mutations that reproduces spontaneously the defects associated with Friedreich ataxia (PLoS One 4, e6379 (2009)). […] This model is also extremely stable, with phenotypes unchanged after months of continuous culture. In contrast, the mutations in available primary human FA fibroblasts are GAA repeat expansions in the first intron of the FXN gene; occasional cells in which these expansions contract have a growth advantage and take over the culture, diluting the phenotype and increasing variance in various measures of compound efficacy.
In another screen, testing was conducted in the I154F point-mutation model as described above, to determine whether test compounds could rescue I154F FA cells from lethal or sublethal concentrations of FAC and/or BSO. Effective in this screen were the following compounds: N-[(5-chloro-8-hydroxyquinolin-7-yl)-thiophen-2-ylmethyl]-3-phenylpropanamide, N-[(5-chloro-8-hydroxyquinolin-7-yl)-thiophen-2-ylmethyl]pentanamide, N-[(5-chloro-8-hydroxyquinolin-7-yl)-furan-2-ylmethyl]-3-phenylpropanamide, N-[(5-chloro-8-hydroxyquinolin-7-yl)-furan-2-ylmethyl]propanamide, N-[(5-chloro-8-hydroxyquinolin-7-yl)-furan-2-ylmethyl]pentanamide, N-[(5-chloro-8-hydroxyquinolin-7-yl)-tolyl]-3-phenylpropanamide, N-[(5-chloro-8-hydroxyquinolin-7-yl)-(3-methoxyphenyl)methyl]-3-phenylpropanamide, N-[(5-chloro-8-hydroxyquinolin-7-yl)-(4-dimethylaminophenyl)methyl]-3-phenylpropanamide, N-[(5-chloro-8-hydroxyquinolin-7-yl)-(4-chlorophenyl)methyl]-3-phenylpropanamide, N-[(5-chloro-8-hydroxyquinolin-7-yl)-(3-chlorophenyl)methyl]-3-phenylpropanamide, N-[(5-chloro-8-hydroxyquinolin-7-yl)-(2-chlorophenyl)methyl]-3-phenylpropanamide, N-[(5-chloro-8-hydroxyquinolin-7-yl)-(3,4-dimethoxyphenyl)methyl]-3-phenylpropanamide, N-[(5-chloro-8-hydroxyquinolin-7-yl)-(2,4-dimethoxyphenyl)methyl]-3-phenylpropanamide, N-[(5-chloro-8-hydroxyquinolin-7-yl)-(3,4,5-trimethoxyphenyl)methyl]-3-phenylpropanamide, N-[(5-chloro-8-hydroxyquinolin-7-yl)-(2-bromophenyl)methyl]-3-phenylpropanamide, N-[(5-chloro-8-hydroxyquinolin-7-yl)-p-tolyl-methyl]-3-phenylpropanamide, N-[(5-chloro-8-hydroxyquinolin-7-yl)-(2-hydroxyphenyl)methyl]-3-phenylpropanamide (1a-18), and N-[(5-chloro-8-hydroxyquinolin-7-yl)-(4-methoxyphenyl)methyl]-3-phenylpropanamide.

SMILES	rescue of I154F FA cells from lethal or sublethal concentrations of FAC and/or BSO
COc1ccc(C(NC(=O)CCc2ccccc2)c2cc(Cl)c3cccnc3c2O)c(OC)c1 (centres unmarked) [N-[(5-chloro-8-hydroxyquinolin-7-yl)-(2,4-dimethoxyphenyl)methyl]-3-phenylpropanamide]	Effective
O=C(CCc1ccccc1)NC(c1ccccc1Br)c1cc(Cl)c2cccnc2c1O (centres unmarked) [N-[(5-chloro-8-hydroxyquinolin-7-yl)-(2-bromophenyl)methyl]-3-phenylpropanamide]	Effective
O=C(CCc1ccccc1)NC(c1ccccc1Cl)c1cc(Cl)c2cccnc2c1O (centres unmarked) [N-[(5-chloro-8-hydroxyquinolin-7-yl)-(2-chlorophenyl)methyl]-3-phenylpropanamide]	Effective
O=C(CCc1ccccc1)NC(c1ccccc1O)c1cc(Cl)c2cccnc2c1O (centres unmarked) [N-[(5-chloro-8-hydroxyquinolin-7-yl)-(2-hydroxyphenyl)methyl]-3-phenylpropanamide]	Effective
COc1cc(C(NC(=O)CCc2ccccc2)c2cc(Cl)c3cccnc3c2O)cc(OC)c1OC (centres unmarked) [N-[(5-chloro-8-hydroxyquinolin-7-yl)-(3,4,5-trimethoxyphenyl)methyl]-3-phenylpropanamide]	Effective
COc1ccc(C(NC(=O)CCc2ccccc2)c2cc(Cl)c3cccnc3c2O)cc1OC (centres unmarked) [N-[(5-chloro-8-hydroxyquinolin-7-yl)-(3,4-dimethoxyphenyl)methyl]-3-phenylpropanamide]	Effective
O=C(CCc1ccccc1)NC(c1cccc(Cl)c1)c1cc(Cl)c2cccnc2c1O (centres unmarked) [N-[(5-chloro-8-hydroxyquinolin-7-yl)-(3-chlorophenyl)methyl]-3-phenylpropanamide]	Effective
COc1cccc(C(NC(=O)CCc2ccccc2)c2cc(Cl)c3cccnc3c2O)c1 (centres unmarked) [N-[(5-chloro-8-hydroxyquinolin-7-yl)-(3-methoxyphenyl)methyl]-3-phenylpropanamide]	Effective
O=C(CCc1ccccc1)NC(c1ccc(Cl)cc1)c1cc(Cl)c2cccnc2c1O (centres unmarked) [N-[(5-chloro-8-hydroxyquinolin-7-yl)-(4-chlorophenyl)methyl]-3-phenylpropanamide]	Effective
CN(C)c1ccc(C(NC(=O)CCc2ccccc2)c2cc(Cl)c3cccnc3c2O)cc1 (centres unmarked) [N-[(5-chloro-8-hydroxyquinolin-7-yl)-(4-dimethylaminophenyl)methyl]-3-phenylpropanamide]	Effective
COc1ccc(C(NC(=O)CCc2ccccc2)c2cc(Cl)c3cccnc3c2O)cc1 (centres unmarked) [N-[(5-chloro-8-hydroxyquinolin-7-yl)-(4-methoxyphenyl)methyl]-3-phenylpropanamide]	Effective
O=C(CCc1ccccc1)NC(c1ccco1)c1cc(Cl)c2cccnc2c1O (centres unmarked) [N-[(5-chloro-8-hydroxyquinolin-7-yl)-furan-2-ylmethyl]-3-phenylpropanamide]	Effective
CCCCC(=O)NC(c1ccco1)c1cc(Cl)c2cccnc2c1O (centres unmarked) [N-[(5-chloro-8-hydroxyquinolin-7-yl)-furan-2-ylmethyl]pentanamide]	Effective
CCC(=O)NC(c1ccco1)c1cc(Cl)c2cccnc2c1O (centres unmarked) [N-[(5-chloro-8-hydroxyquinolin-7-yl)-furan-2-ylmethyl]propanamide]	Effective
Cc1ccc(C(NC(=O)CCc2ccccc2)c2cc(Cl)c3cccnc3c2O)cc1 (centres unmarked) [N-[(5-chloro-8-hydroxyquinolin-7-yl)-p-tolyl-methyl]-3-phenylpropanamide]	Effective
